For seven molecules, GI50 and TGI results are on record in PubChem BioAssay (NCI).

Each structure is given as a SMILES string.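 A five-concentration, 48-hour dose response in 96-well plates underlies each endpoint, interpolated linearly between surrounding concentrations. GI50 is the concentration that inhibits growth by half. At the TGI there is no net growth.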

Among the test systems are MDA-MB-231 breast; SK-MEL-5 melanoma; HT29 colon; COLO 205 colon; NCI-H226 lung; M14 melanoma; K-562 leukemia; SK-OV-3 ovarian; SF-539 CNS; HOP-62 NSCLC.
What all share (assay): inhibition of tumour cell growth, NCI panel, 48 h

Regarding `Nc1ncnc2c1c(-c1cccc(OCc3ccccc3)c1)cn2C1CC(CN2CCCC2)C1` (centres undefined), the GI50 in the experiment with MDA-MB-231 breast was 1.88 µM; in the experiment on SK-MEL-5 melanoma it was 1.39 µM; in the experiment on HT29 colon, 0.117 µM; in the experiment with COLO 205 colon, 0.331 µM; in the experiment on NCI-H226 lung it was 1.34 µM; in the experiment with M14 melanoma it was 1.61 µM. Also, the GI50 is 1.86 µM in the experiment with K-562 leukemia, 2.44 µM with SK-OV-3 ovarian, 1.6 µM in the experiment on SF-539 CNS and 1.99 µM with HOP-62 NSCLC. The TGI was 4.54 µM in the experiment on MDA-MB-231 breast; 2.76 µM in the experiment on SK-MEL-5 melanoma; 1.63 µM in the experiment on HT29 colon; 1.47 µM in the experiment on COLO 205 colon; 6.98 µM in the experiment with NCI-H226 lung; 3.2 µM in the experiment with M14 melanoma. Further, the TGI was found to be 6.54 µM with K-562 leukemia, 5.85 µM in the experiment with SK-OV-3 ovarian, 3.02 µM in the experiment with SF-539 CNS and 5.5 µM in the experiment with HOP-62 NSCLC.

Consider `CCCn1cc(C2=C(c3cn(C)c4ccccc34)C(=O)NC2=O)c2ccccc21`, for which the GI50 with MDA-MB-231 breast was 3.91 µM; with SK-MEL-5 melanoma it was 0.554 µM; in the experiment with HT29 colon it was 0.783 µM; in the experiment with COLO 205 colon, 0.889 µM; in the experiment on NCI-H226 lung, 2.69 µM; in the experiment on M14 melanoma it was 1.83 µM. Also, the GI50 in the experiment on K-562 leukemia was 0.392 µM; with SK-OV-3 ovarian, 1.22 µM; with SF-539 CNS it was 0.689 µM; with HOP-62 NSCLC it was 1.69 µM. Moreover, the TGI was 16.9 µM in the experiment with MDA-MB-231 breast; 4.36 µM in the experiment on SK-MEL-5 melanoma; 6.16 µM in the experiment with HT29 colon; above 7.08 µM in the experiment with COLO 205 colon; 9.78 µM in the experiment on NCI-H226 lung; above 18.2 µM in the experiment with M14 melanoma. In addition, the TGI in the experiment on K-562 leukemia is above 25 µM; with SK-OV-3 ovarian it was above 19 µM; in the experiment on SF-539 CNS it was 2.8 µM; with HOP-62 NSCLC, above 18.4 µM.

For the molecule `COc1ccc2nc3cccc([N+](=O)[O-])c3c(NCCN(CCO)CCO)c2c1`, the GI50 is 0.0385 µM in the experiment on MDA-MB-231 breast; 0.0117 µM with HT29 colon; 0.0118 µM in the experiment on COLO 205 colon; 0.0822 µM with NCI-H226 lung; 0.0128 µM with M14 melanoma; 0.013 µM in the experiment with K-562 leukemia. Further, the GI50 in the experiment on SK-OV-3 ovarian was 0.106 µM; with SF-539 CNS, 0.0893 µM; with HOP-62 NSCLC, 0.0304 µM. Further, the TGI with MDA-MB-231 breast amounted to 0.42 µM; in the experiment on SK-MEL-5 melanoma, 0.0175 µM; with HT29 colon, 0.043 µM; with COLO 205 colon, 0.031 µM; in the experiment on NCI-H226 lung, 0.536 µM; in the experiment on M14 melanoma, 0.0275 µM. In addition, the TGI in the experiment on K-562 leukemia stood at 0.0487 µM; in the experiment with SK-OV-3 ovarian, 0.771 µM; in the experiment on SF-539 CNS, 0.27 µM; in the experiment on HOP-62 NSCLC, 0.153 µM.

With `O=C(CSc1nc2ccc([N+](=O)[O-])cc2[nH]1)Nc1cccc(Cl)c1`, the GI50 was 2.12 µM in the experiment with MDA-MB-231 breast; 1.2 µM in the experiment on SK-MEL-5 melanoma; 2.75 µM with HT29 colon; 1.92 µM with COLO 205 colon; 2.38 µM in the experiment on NCI-H226 lung; 3.06 µM in the experiment with M14 melanoma. The GI50 in the experiment with K-562 leukemia was 2.74 µM; with SK-OV-3 ovarian it was 2.03 µM; with SF-539 CNS it was 3.02 µM; in the experiment with HOP-62 NSCLC it was 2.79 µM. For the same molecule, the TGI in the experiment on MDA-MB-231 breast was found to be 6.55 µM; in the experiment with SK-MEL-5 melanoma, 2.6 µM; in the experiment on HT29 colon, 10.7 µM; in the experiment with COLO 205 colon, 4.27 µM; in the experiment with NCI-H226 lung it was 9.93 µM; with M14 melanoma, 13.6 µM. Also, the TGI was above 100 µM in the experiment on K-562 leukemia, 6.45 µM in the experiment on SK-OV-3 ovarian, 11.7 µM with SF-539 CNS and 13 µM with HOP-62 NSCLC.

Regarding `CCCN(CCC)c1ccc(C=O)cc1`, the GI50 was above 100 µM with MDA-MB-231 breast; 20.7 µM with SK-MEL-5 melanoma; 52 µM with HT29 colon; above 77.6 µM in the experiment on COLO 205 colon; 30 µM with NCI-H226 lung; above 100 µM with M14 melanoma. Moreover, the GI50 is 25.7 µM in the experiment with K-562 leukemia, above 100 µM in the experiment with SK-OV-3 ovarian, above 100 µM with SF-539 CNS and above 88 µM in the experiment on HOP-62 NSCLC. Further, the TGI is above 100 µM in the experiment with MDA-MB-231 breast; 54.5 µM in the experiment on SK-MEL-5 melanoma; above 100 µM in the experiment on HT29 colon; above 100 µM with COLO 205 colon; above 100 µM in the experiment with NCI-H226 lung; above 100 µM in the experiment on M14 melanoma. The TGI with K-562 leukemia, with SK-OV-3 ovarian, in the experiment with SF-539 CNS and in the experiment with HOP-62 NSCLC was above 100 µM in each case.

As for `CN(C)c1ccc(/C=C(\C#N)c2cc3ccccc3n2C)cc1`, the GI50 is 0.509 µM with MDA-MB-231 breast; 0.606 µM in the experiment with SK-MEL-5 melanoma; 0.121 µM with HT29 colon; 0.258 µM in the experiment with COLO 205 colon; 1.46 µM in the experiment on NCI-H226 lung; 0.075 µM with M14 melanoma. Further, the GI50 in the experiment with K-562 leukemia is 0.0407 µM; in the experiment on SK-OV-3 ovarian, 0.532 µM; with SF-539 CNS, 0.208 µM; in the experiment on HOP-62 NSCLC it was 0.296 µM. Besides, the TGI with MDA-MB-231 breast was above 100 µM; in the experiment with SK-MEL-5 melanoma it was 12.1 µM; in the experiment with HT29 colon, 5.64 µM; with COLO 205 colon it was 1.72 µM; in the experiment on NCI-H226 lung, above 100 µM; in the experiment with M14 melanoma it was above 100 µM. Besides, the TGI is above 100 µM with K-562 leukemia, above 100 µM with SK-OV-3 ovarian, 0.713 µM in the experiment with SF-539 CNS and above 100 µM in the experiment on HOP-62 NSCLC.

With `Nc1ccccc1/C=N\Nc1ccccc1`, the GI50 with MDA-MB-231 breast is 8.23 µM; with SK-MEL-5 melanoma, 2.69 µM; in the experiment on HT29 colon, above 100 µM; in the experiment with COLO 205 colon, 25.2 µM; in the experiment on NCI-H226 lung, above 100 µM; in the experiment on M14 melanoma it was 4.05 µM. The GI50 in the experiment with K-562 leukemia was 3.24 µM; in the experiment on SK-OV-3 ovarian, above 100 µM; in the experiment on SF-539 CNS, 1.27 µM; with HOP-62 NSCLC, above 100 µM. Also, the TGI with MDA-MB-231 breast was above 100 µM; with SK-MEL-5 melanoma, 7.98 µM; in the experiment on HT29 colon, above 100 µM; in the experiment on COLO 205 colon, above 100 µM; in the experiment on NCI-H226 lung it was above 100 µM; in the experiment with M14 melanoma, above 100 µM. Besides, the TGI in the experiment on K-562 leukemia was above 100 µM; in the experiment on SK-OV-3 ovarian it was above 100 µM; in the experiment on SF-539 CNS, 7.04 µM; in the experiment with HOP-62 NSCLC it was above 100 µM.
